System: human myometreal fragments
Experiment: Inhibition in vitro of the uterine contractility of myometreal fibers from uteruses of women who are not pregnant
Format: cell-based
Settings: for Inhibition as % (Mean): spontaneous contractions
Excerpt: Inhibition In Vitro of the Uterine Contractility of Myometreal Fibers from Uteruses of Women Who are Not Pregnant
The contractile activity of human myometreal fragments was studied in vitro.
After a lag time of approximately two hours, allowing the establishment of spontaneous contractions, the inhibition of the contractions, produced by addition to the medium of 17α-hydroxyprogesterone and of its nitro derivative, 17α-hydroxypregn-4-ene-3,20-dione (4′-nitro-oxymethyl)benzoate, identified in this table under the name 17α-hydroxypregn-4-ene-3,20-dione (4′-nitro-oxymethyl)benzoate (example 4), could be measured.
This experiment makes it possible to evaluate the short-term effect of this compound.

Row | SMILES | Activity on contractions compared with hydroxyprogesterone (on average, action much more constant, less variable) | Inhibition as % (Mean) (concentration 2 × 10^−6 M) | Inhibition as % (Mean) (concentration 2 × 10^−7 M)
1 | CC(=O)[C@@]1(OC(=O)c2ccc(CO[N+](=O)[O-])cc2)CC[C@H]2[C@@H]3CCC4=CC(=O)CC[C@]4(C)[C@H]3CC[C@@]21C [17α-hydroxypregn-4-ene-3,20-dione (4′-nitrooxymethyl)benzoate] | the same activity as hydroxyprogesterone | 69% | 37%
2 | CC(=O)[C@@]1(O)CC[C@H]2[C@@H]3CCC4=CC(=O)CC[C@]4(C)[C@H]3CC[C@@]21C [17α-hydroxyprogesterone, reference compound] |  | 66% | 45%

— patent publication US7763600B2, “Hormone-based nitrogen monoxide donor compounds and use thereof in obstetrics and gynecology” (EFFIK, priority 2002, dated 2010)
